In patent publication US8716242B2, “β-hairpin peptidomimetics” (priority 2009, dated 2014) one finds IC50 and GI50 data, which are given here for 6 molecules.

One data set concerns the target T1, human CXCR4 (Homo sapiens, UniProt P61073).
T1 construct: expressed in transfected cells; host or cells: mouse pre-B cell line 300-19
As to the kind of experiment: Ca2+-assay: CXCR4-antagonizing activity (SDF-1 induced calcium mobilization). The format is cell-based. The following applies: mouse pre-B cell line 300-19 transfected with human CXCR4; SDF-1 induced Ca2+ mobilization; read-out: IC50% [nM] ± SD, CXCR4 receptor. The procedure, abridged: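 Mouse pre-B 300-19 cells stably expressing human CXCR4, loaded with Calcium 4 dye in HBSS/20 mM HEPES pH 7.4/0.1% BSA for 1 h at RT. Peptides added before SDF-1; fluorescence (ex 485/em 525 nm) followed for 90 s. IC50 from four-parameter logistic fit of % maximal SDF-1 response.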

Data set [1] in a line: Cytotoxicity, MTT reduction assay, COS-7 cells. The following applies: African green monkey, COS-7 cells (CRL-1651), 12.5-50 μM. In kind it is cell-based. The procedure, abridged: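 HELA (4000/well) and COS-7 (3400/well) cells were grown 24 h, then exposed 48 h at 37° C to peptides at 12.5, 25 and 50 μM in triplicate. MTT reduction read at 595 nm; growth % relative to time-zero, and GI50 interpolated by trend line.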
On the technique in general: Tetrazolium dyes change colour on reduction, which living cells bring about.

SMILES strings stand for the structures. Numbered stars: 1 amine (or outer) side, 2 acyl side, 3 side chain; on linkers, the order of the positions; unused ones are H or OH. Bridge positions count the residues as written; N and C are the ends. Square brackets hold non-standard residues; d marks the D form. Side chains are listed from the residue outwards. Peptide text beside a SMILES is read from it. * marks the point of attachment. γGlu = O=C(O)[C@H](CCC(=O)[*:2])N[*:1]; Palmitoyl = CCCCCCCCCCCCCCCC(=O)*; Myristoyl = CCCCCCCCCCCCCC(=O)*; Lauroyl = CCCCCCCCCCCC(=O)*; Dab = NCC[C@H](N)C(=O)O

A word on the IC50: it is the point on the concentration scale where inhibition reaches its midpoint. The GI50 is the concentration that inhibits growth by half. Higher therefore signals less potent growth inhibition.

T1 sequence (P61073 whole entry): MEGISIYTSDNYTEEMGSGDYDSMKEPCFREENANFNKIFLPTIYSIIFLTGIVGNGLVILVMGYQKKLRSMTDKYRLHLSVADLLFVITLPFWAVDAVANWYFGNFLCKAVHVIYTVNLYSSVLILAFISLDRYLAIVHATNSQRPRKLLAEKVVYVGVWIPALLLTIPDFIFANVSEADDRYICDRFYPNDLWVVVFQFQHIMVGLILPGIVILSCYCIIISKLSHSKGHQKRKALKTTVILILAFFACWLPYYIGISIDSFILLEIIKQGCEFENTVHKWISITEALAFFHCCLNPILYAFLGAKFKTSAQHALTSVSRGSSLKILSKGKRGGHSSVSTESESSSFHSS

Consider `CCCCCCCCCCCC(=O)NCCCC[C@@H]1NC(=O)[C@H](Cc2ccc(O)cc2)NC(=O)[C@@H]2CSSC[C@H](NC(=O)[C@H](C)NC(=O)[C@H](Cc3c[nH]cn3)NC(=O)[C@H](Cc3ccc(O)cc3)NC(=O)[C@@H]3CCCN3C(=O)[C@H]3CCCN3C(=O)[C@H](CCCCN)NC1=O)C(=O)N[C@@H](CCCNC(=N)N)C(=O)N[C@@H](C)C(=O)N1CCC[C@@H]1C(=O)N[C@@H](CCN)C(=O)N[C@@H](CCCNC(=N)N)C(=O)N[C@@H](Cc1ccc(O)cc1)C(=O)N2` [Ex. 17] (cyclo(YHACRA[dP][Dab]RYCYK(Lauroyl)K[dP]P); disulfide 4-11), for which the IC50 at human CXCR4 was found to be 2.8 ± 0.4 nM. The GI50 at 48 h in data set [1] was more than 50000 nM.

For `CCCCCCCCCCCCCCCC(=O)NCCCC[C@@H]1NC(=O)[C@H](Cc2ccc(O)cc2)NC(=O)[C@@H]2CSSC[C@H](NC(=O)[C@H](Cc3ccc(O)cc3)NC(=O)[C@H](Cc3c[nH]cn3)NC(=O)[C@H](Cc3ccc(O)cc3)NC(=O)[C@@H]3CCCN3C(=O)[C@H]3CCCN3C(=O)[C@H](CCCCN)NC1=O)C(=O)N[C@@H](CO)C(=O)N[C@@H](C)C(=O)N1CCC[C@@H]1C(=O)N[C@@H](CCN)C(=O)N[C@@H](CCCNC(=N)N)C(=O)N[C@@H](Cc1ccc(O)cc1)C(=O)N2` [Ex. 20] (cyclo(YHYCSA[dP][Dab]RYCYK(Palmitoyl)K[dP]P); disulfide 4-11), the IC50 on human CXCR4 turned out to be 4 ± 1.8 nM. In data set [1], this molecule came in with a GI50 at 48 h of more than 50000 nM.

With `CCCCCCCCCCCC(=O)N[C@@H](CCC(=O)NCCCC[C@@H]1NC(=O)[C@H](Cc2ccc(O)cc2)NC(=O)[C@@H]2CSSC[C@H](NC(=O)[C@H](Cc3ccc(O)cc3)NC(=O)[C@H](Cc3c[nH]cn3)NC(=O)[C@H](Cc3ccc(O)cc3)NC(=O)[C@@H]3CCCN3C(=O)[C@H]3CCCN3C(=O)[C@H](CCCCN)NC1=O)C(=O)N[C@@H](CO)C(=O)N[C@@H](C)C(=O)N1CCC[C@@H]1C(=O)N[C@@H](CCN)C(=O)N[C@@H](CCCNC(=N)N)C(=O)N[C@@H](Cc1ccc(O)cc1)C(=O)N2)C(=O)O` [Ex. 25] (cyclo(YHYCSA[dP][Dab]RYCYK([γGlu-Lauroyl])K[dP]P); disulfide 4-11), on human CXCR4, the IC50 worked out at 3.5 ± 0.1 nM. Also, in data set [1], the GI50 at 48 h was more than 50000 nM.

Turning to `CCCCCCCCCCCC(=O)N[C@@H](CCC(=O)NCCCC[C@@H]1NC(=O)[C@H](Cc2ccc(O)cc2)NC(=O)[C@@H]2CSSC[C@H](NC(=O)[C@H](C)NC(=O)[C@H](Cc3c[nH]cn3)NC(=O)[C@H](Cc3ccc(O)cc3)NC(=O)[C@@H]3CCCN3C(=O)[C@H]3CCCN3C(=O)[C@H](CCCCN)NC1=O)C(=O)N[C@@H](CCCNC(=N)N)C(=O)N[C@@H](C)C(=O)N1CCC[C@@H]1C(=O)N[C@@H](CCN)C(=O)N[C@@H](CCCNC(=N)N)C(=O)N[C@@H](Cc1ccc(O)cc1)C(=O)N2)C(=O)O` [Ex. 26] (cyclo(YHACRA[dP][Dab]RYCYK([γGlu-Lauroyl])K[dP]P); disulfide 4-11), the IC50 at human CXCR4 is 2.4 ± 0.5 nM. This molecule also displayed a GI50 at 48 h in data set [1] of more than 50000 nM.

Take `CCCCCCCCCCCCCC(=O)N[C@@H](CCC(=O)NCCCC[C@@H]1NC(=O)[C@H](Cc2ccc(O)cc2)NC(=O)[C@@H]2CSSC[C@H](NC(=O)[C@H](Cc3ccc(O)cc3)NC(=O)[C@H](Cc3c[nH]cn3)NC(=O)[C@H](Cc3ccc(O)cc3)NC(=O)[C@@H]3CCCN3C(=O)[C@H]3CCCN3C(=O)[C@H](CCCCN)NC1=O)C(=O)N[C@@H](CO)C(=O)N[C@@H](C)C(=O)N1CCC[C@@H]1C(=O)N[C@@H](CCN)C(=O)N[C@@H](CCCNC(=N)N)C(=O)N[C@@H](Cc1ccc(O)cc1)C(=O)N2)C(=O)O` [Ex. 28] (cyclo(YHYCSA[dP][Dab]RYCYK([γGlu-Myristoyl])K[dP]P); disulfide 4-11): the IC50 on human CXCR4 amounted to 2.1 ± 0.1 nM. In addition, the GI50 at 48 h in data set [1] was more than 50000 nM.

Consider `CCCCCCCCCCCCCCCC(=O)N[C@@H](CCC(=O)NCCCC[C@@H]1NC(=O)[C@H](Cc2ccc(O)cc2)NC(=O)[C@@H]2CSSC[C@H](NC(=O)[C@H](Cc3ccc(O)cc3)NC(=O)[C@H](Cc3c[nH]cn3)NC(=O)[C@H](Cc3ccc(O)cc3)NC(=O)[C@@H]3CCCN3C(=O)[C@H]3CCCN3C(=O)[C@H](CCCCN)NC1=O)C(=O)N[C@@H](CO)C(=O)N[C@@H](C)C(=O)N1CCC[C@@H]1C(=O)N[C@@H](CCN)C(=O)N[C@@H](CCCNC(=N)N)C(=O)N[C@@H](Cc1ccc(O)cc1)C(=O)N2)C(=O)O` [Ex. 29] (cyclo(YHYCSA[dP][Dab]RYCYK([γGlu-Palmitoyl])K[dP]P); disulfide 4-11), for which, at human CXCR4, the IC50 is 1.9 ± 0.8 nM. In addition, the GI50 at 48 h in data set [1] is more than 50000 nM.
